Eight molecules from US6043254A, “Indolinones having kinase-inhibiting activity” (Boehringer Ingelheim Pharma KG, priority 1998, dated 2000) can be followed below.

For assay [1], the system named is SK-UT-1B cells (Leimyosarcoma tumour cell line). As to the kind of experiment: Test 2: inhibition of the proliferation of cultivated human tumour cells (14C-thymidine incorporation). In kind it is cell-based. Particulars: Skut1B, 48 hours' incubation, then 14C-thymidine for a further 24 hours, read-out: Inhibiting the proliferation of SKUT-1B cells: IC50. The method, then:
Inhibition of the Proliferation of Cultivated Human Tumour Cells
Cells of the Leimyosarcoma tumour cell line SK-UT-1B (obtained from the American Type Culture Collection (ATCC)) were cultivated in Minimum Essential Medium with non-essential amino acids (Gibco), supplemented with sodium pyruvate (1 mmol), glutamine (2 mmol) and 10% foetal calf serum (Gibco) and harvested during the log-growth phase. Then the SK-UT-1B cells were added to Cytostar® multi-well plates (Amersham) at a density of 4000 cells per well and incubated overnight in an incubator. Various concentrations of the compounds (dissolved in DMSO; final concentration: <1%) were added to the cells. After 48 hours' incubation ^14 C-thymidine (Amersham) was added to each well and incubation was continued for a further 24 hours. The quantity of ^14 C-thymidine incorporated into the tumour cells in the presence of the inhibitor and representing the number of cells in the S phase was measured in a Wallace 1450 Microbeta Liquid Scintillation Counter. IC50 values for the inhibition of proliferation (=inhibition of incorporated ^14 C-thymidine) were calculated, correcting for the background radiation. All the measurements were done twice.

The test system of assay [2] is tumour (SK-UT-1B, or non-small cell lung tumour NCI-H460). Put plainly: Test 3: in vivo effects on tumour-bearing nude mice. Also on record: species or system nude mice (NMRI nu/nu). The note with it: 100 mg/kg p.o. once a day for two weeks; male nude mice (n=9); significant, p<0.05. The method, then: In vivo Effects on Tumour-bearing Nude Mice
10^6 cells [SK-UT-1B, or non-small cell lung tumour NCI-H460 (obtained from ATCC)] in a volume of 0.1 ml were injected subcutaneously into male and/or female nude mice (NMRI nu/nu; 25-35 g; N=10-20); alternatively, small fragments of SK-UT-1B or NCI-H460 cell clumps were implanted subcutaneously. One to three weeks after the injection or implantation a kinase inhibitor was administered daily by oral route for a period of 2 to 4 weeks (by oesophageal tube). The size of the tumour was measured three times a week using a digital sliding gauge. The effect of a kinase inhibitor on the tumour growth was determined as a percentage inhibition compared with a control group treated with placebo.

Assay [3] deals with T1, cycline D1/CDK4 (Homo sapiens, UniProt P11802).
T1 construct: His6; made in house; host or cells: High Five insect cells (BTI-TN-5B1-4), recombinant baculovirus with two promoters
Put plainly: Test 1: inhibition of cycline/CDK enzyme in vitro activity. It is filed as biochemical. Particulars: GST-tagged pRB substrate; 45 minutes at 30° C.; 1% DMSO. The source says: Inhibition of cycline/CDK Enzyme in vitro Activity
High Five™ insect cells (BTI-TN-5B1-4) which had been infected with a high titre of recombinant baculovirus were used to produce active human cycline/CDK holoenzymes. By using a baculovirus vector which contained two promoters (polyhedrin enhancer promoter, P10 enhancer promoter), GST-tagged cyclines (e.g. cycline D1 or cycline D3) with the corresponding His6 -tagged CDK subunit (e.g. for CDK4 or CDK6) were expressed in the same cell. The active holoenzyme was isolated by affinity chromatography on glutathione sepharose. Recombinant GST-tagged pRB (aa 379-928) was produced in E. coli and purified by affinity chromatography on glutathione sepharose.
The substrates used for the kinase assays depended on the specific kinases. Iistone H1 (Sigma) was used as the substrate for cycline E/CDK2, cycline A/CDK2, cycline B/CDK1 and for v-cycline/CDK6. GST-tagged pRB (aa 379-928) was used as substrate for cycline D1/CDK4, cycline D3/CDK4, cycline D1/CDK6 and for cycline D3/CDK6.
Lysates of the insect cells infected with recombinant baculovirus or recombinant kinases (obtained from the lysates by purification) were incubated together with radiolabelled ATP in the presence of a suitable substrate with various concentrations of the inhibitor in a 1% DMSO solution (dimethyl sulphoxide) for 45 minutes at 30° C. The substrate proteins with associated radioactivity were precipitated with 5% TCA (trichloroacetic acid) in water-repellent PVDF multi-well microtitre plates (Millipore) or with 0.5% phosphoric acid solution on Whatman P81 filters. After the addition of scintillation liquid the radioactivity was measured in a Wallace 1450 Microbeta Liquid Scintillation Counter. For each concentration of the substance double measurements were carried out; IC50 values were calculated for the enzyme inhibition.

T1 sequence (P11802 whole entry): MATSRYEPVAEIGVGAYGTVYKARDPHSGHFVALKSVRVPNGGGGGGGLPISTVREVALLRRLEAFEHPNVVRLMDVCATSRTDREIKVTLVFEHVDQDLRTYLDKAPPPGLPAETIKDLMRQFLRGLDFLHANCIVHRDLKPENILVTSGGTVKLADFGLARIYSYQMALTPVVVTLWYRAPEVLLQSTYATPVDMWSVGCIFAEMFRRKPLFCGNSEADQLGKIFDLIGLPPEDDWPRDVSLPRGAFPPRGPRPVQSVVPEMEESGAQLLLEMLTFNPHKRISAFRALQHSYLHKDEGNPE
T1 sequence (P24385 whole entry partner): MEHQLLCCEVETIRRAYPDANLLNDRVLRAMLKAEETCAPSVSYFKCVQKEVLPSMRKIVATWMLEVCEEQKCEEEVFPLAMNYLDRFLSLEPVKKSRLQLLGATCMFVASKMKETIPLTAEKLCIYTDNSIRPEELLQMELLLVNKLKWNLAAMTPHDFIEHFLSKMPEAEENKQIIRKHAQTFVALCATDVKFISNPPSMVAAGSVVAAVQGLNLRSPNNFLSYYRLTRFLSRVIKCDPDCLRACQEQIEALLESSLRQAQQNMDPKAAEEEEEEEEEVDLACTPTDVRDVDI

On to `O=C1Nc2ccc([N+](=O)[O-])cc2/C1=C(/Nc1ccc(-c2c[nH]cn2)cc1)c1ccccc1` [Example 2.5], for which the figures for the IC50 in assay [1] and in assay [3] were 0.34 µM and 1 µM, respectively. Further, the “reduction in the tumour size” value in assay [2] is listed as “around 65%”.

In the case of `Cn1ccnc1-c1ccc(N/C(=C2\C(=O)Nc3ccc([N+](=O)[O-])cc32)c2ccccc2)cc1` [Example 3.12, 3-{(Z)-1-[4-(1-methyl-1H-imidazol-2-yl)anilino]-1-phenylmethylidene}-5-nitro-2-indolinone], the IC50 in assay [1] is 0.4 µM. Consider `O=C1Nc2ccc([N+](=O)[O-])cc2/C1=C(/Nc1ccc(CN2CCCC2)cc1)c1ccccc1` [Example 3.18, 3-{(Z)-1-[4-((pyrrolidin-1-yl)methyl)anilino]-1-phenylmethylidene}-5-nitro-2-indolinone], for which, in assay [1], the IC50 amounted to 0.22 µM. `O=C1Nc2ccc([N+](=O)[O-])cc2/C1=C(/Nc1ccc(CCN2CCCC2)cc1)c1ccccc1` [Example 4.9, 3-{(Z)-1-[4-(2-(pyrrolidin-1-yl)ethyl)anilino]-1-phenylmethylidene}-5-nitro-2-indolin]: the IC50 in assay [3] is 0.055 µM. Turning to `O=C1Nc2ccc([N+](=O)[O-])cc2/C1=C(/Nc1ccc(CN2C(=O)CCC2=O)cc1)c1ccccc1` [Example 4.11, 3{(Z)-1-[4-((2,5-dioxo-pyrrolidin-1-yl)methyl)anilino]-1-phenylmethylidene}-5-nitro-2-indolinone], the IC50 in assay [1] amounted to 0.53 µM. The same measure, in the same setting: the same measure for `O=C1Nc2ccccc2/C1=C(/Nc1ccc(-c2cn3cccnc3n2)cc1)c1ccccc1` [Example 8.3, 3-{(Z)-1-[4-(imidazo[1,2-a]pyrimidin-2-yl)anilino]-1-phenylmethylidene}-2-indolinone]: 1.3 µM. For the molecule `O=C1Nc2ccc([N+](=O)[O-])cc2/C1=C(/Nc1ccc2c(c1)CCNC2)c1ccccc1` [Example 14.1, 3-{(Z)-1-[(1,2,3,4-tetrahydro-isoquinolin-6-yl)amino]-1-phenylmethylidene}-5-nitro-2-indolinone], the IC50 in assay [3] amounted to 0.15 µM. `CC(=O)N1CCc2cc(N/C(=C3\C(=O)Nc4ccc([N+](=O)[O-])cc43)c3ccccc3)ccc2C1` [Example 18.2, 3-{(Z)-1-[(2-acetyl-1,2,3,4-tetrahydro-isoquinolin-6-yl)-amino]-1-phenylmethylidene}-5-nitro-2-indolinone] had an IC50 in assay [3] of 1.4 µM.
